Assay results taken from PubChem BioAssay (NCI).
Where “and” joins values, the source holds several entries; their conditions need not be identical. Equal entries are not always repeated.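 The compound was tested at five concentrations on cells cultured in 96-well plates, with a 48-hour exposure period. Abbreviation: GI50, concentration required for 50% inhibition of growth. TGI marks complete inhibition of growth.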 Where a SMILES comes first, the peptide text is derived from it. Bridges are numbered along the chain shown (N, C = ends). [ ]: non-standard residue; d: D form. The star is where a group is joined. ξ: configuration not given here. ξNMePhe(4-NMe2) = CNC(Cc1ccc(N(C)C)cc1)C(=O)O; Picolinoyl(3-OH) = O=C(c1ncccc1O)*; ξPip(4-oxo) = O=C1CCNC(C(=O)O)C1; Phg = N[CH](C(=O)O)c1ccccc1; Abu = CC[CH](N)C(=O)O

What was measured:
Assay in all cases: inhibition of tumour cell growth, NCI panel, 48 h
HOP-92 NSCLC = test system: HOP-92 NSCLC
UACC-257 melanoma = test system: UACC-257 melanoma
NCI-H23 lung = test system: NCI-H23 lung
NCI-H226 lung = test system: NCI-H226 lung
BT-549 breast = test system: BT-549 breast
NCI-H460 lung = test system: NCI-H460 lung
SNB-19 CNS = test system: SNB-19 CNS
786-0 renal = test system: 786-0 renal
U251 CNS = test system: U251 CNS
SW-620 colon = test system: SW-620 colon
SF-268 CNS = test system: SF-268 CNS
PC-3 prostate = test system: PC-3 prostate
T-47D breast = test system: T-47D breast
M14 melanoma = test system: M14 melanoma
HL-60(TB) leukemia = test system: HL-60(TB) leukemia
A498 renal = test system: A498 renal
MCF7 breast = test system: MCF7 breast
HT29 colon = test system: HT29 colon
SK-OV-3 ovarian = test system: SK-OV-3 ovarian
CCRF-CEM leukemia = test system: CCRF-CEM leukemia
CAKI-1 renal = test system: CAKI-1 renal
OVCAR-5 ovarian = test system: OVCAR-5 ovarian
SR leukemia = test system: SR leukemia
UACC-62 melanoma = test system: UACC-62 melanoma
HCT-15 colon = test system: HCT-15 colon
UO-31 renal = test system: UO-31 renal
TK-10 renal = test system: TK-10 renal
NCI-H522 lung = test system: NCI-H522 lung
SF-295 CNS = test system: SF-295 CNS
SNB-75 CNS = test system: SNB-75 CNS
NCI/ADR-RES ovarian = test system: NCI/ADR-RES ovarian
RXF 393 renal = test system: RXF 393 renal
OVCAR-3 ovarian = test system: OVCAR-3 ovarian
MOLT-4 leukemia = test system: MOLT-4 leukemia
SK-MEL-28 melanoma = test system: SK-MEL-28 melanoma
HCC-2998 colon = test system: HCC-2998 colon
HS 578T breast = test system: HS 578T breast
OVCAR-8 ovarian = test system: OVCAR-8 ovarian
ACHN renal = test system: ACHN renal
OVCAR-4 ovarian = test system: OVCAR-4 ovarian
DU-145 prostate = test system: DU-145 prostate
K-562 leukemia = test system: K-562 leukemia
MDA-MB-231 breast = test system: MDA-MB-231 breast
A549 NSCLC = test system: A549 NSCLC
HCT-116 colon = test system: HCT-116 colon
EKVX NSCLC = test system: EKVX NSCLC
MALME-3M melanoma = test system: MALME-3M melanoma
HOP-62 NSCLC = test system: HOP-62 NSCLC
SK-MEL-5 melanoma = test system: SK-MEL-5 melanoma
LOX IMVI melanoma = test system: LOX IMVI melanoma
IGROV1 ovarian = test system: IGROV1 ovarian
SN12C renal = test system: SN12C renal
RPMI-8226 leukemia = test system: RPMI-8226 leukemia
SK-MEL-2 melanoma = test system: SK-MEL-2 melanoma
SF-539 CNS = test system: SF-539 CNS
KM12 colon = test system: KM12 colon

`CCC1NC(=O)C(NC(=O)c2ncccc2O)C(C)OC(=O)C(c2ccccc2)NC(=O)C2CC(=O)CCN2C(=O)C(Cc2ccc(N(C)C)cc2)N(C)C(=O)C2CCCN2C1=O` (configuration not stated) (tested in a mixture with another compound) ({Picolinoyl(3-OH)}-T[Abu]P[ξNMePhe(4-NMe2)][ξPip(4-oxo)][Phg]; ester 1-C; configuration not given here) was tested, and the TGI (HOP-92 NSCLC) was 25500 nM, the TGI (UACC-257 melanoma) was 22300 nM and the TGI (NCI-H23 lung) was 34500 nM. The TGI (NCI-H226 lung) was 42100 nM and the TGI (BT-549 breast) was 53200 nM.

`Nc1ncnc2c(C3OC(CO)C(O)C3O)nsc12` (configuration not stated) was tested, and the TGI (NCI-H460 lung) was greater than 100000 nM, the TGI (SNB-19 CNS) was greater than 100000 nM and the TGI (786-0 renal) was greater than 100000 nM. It also gave a TGI (U251 CNS) greater than 100000 nM, a TGI (SW-620 colon) greater than 100000 nM and a TGI (SF-268 CNS) greater than 100000 nM. It also gave a GI50 (PC-3 prostate) of 4600 nM, a GI50 (T-47D breast) of less than 16.2 nM and a TGI (T-47D breast) greater than 48600 nM. It also gave a TGI (M14 melanoma) greater than 75000 nM, a GI50 (HL-60(TB) leukemia) of 1520 nM and a TGI (HL-60(TB) leukemia) of 7500 nM. It also gave a TGI (A498 renal) of 1410 nM, a TGI (MCF7 breast) greater than 100000 nM and a TGI (HT29 colon) greater than 100000 nM. The GI50 (SK-OV-3 ovarian) was 3250 nM, the TGI (SK-OV-3 ovarian) was 20300 nM and the TGI (CCRF-CEM leukemia) was 16500 nM and > 100000 nM.

In the case of `COc1ccc(/C=C/C(=O)c2cc3c(N)c(C(=O)Nc4ccccc4)sc3nc2C)cc1`, the GI50 (CAKI-1 renal) is reported as 258 nM, the TGI (CAKI-1 renal) is reported as greater than 50000 nM and the GI50 (OVCAR-5 ovarian) is reported as 385 nM. For the same compound, the TGI (OVCAR-5 ovarian) was greater than 50000 nM, the GI50 (SR leukemia) was 207 nM and the TGI (SR leukemia) was greater than 50000 nM. For the same compound, the GI50 (UACC-62 melanoma) was 119 nM, the TGI (UACC-62 melanoma) was greater than 50000 nM and the GI50 (HOP-92 NSCLC) was 1170 nM. It also gave a TGI (HOP-92 NSCLC) of 14000 nM, a GI50 (NCI-H460 lung) of 195 nM and a GI50 (SNB-19 CNS) of 269 nM. The TGI (SNB-19 CNS) was greater than 50000 nM, the GI50 (HCT-15 colon) was 205 nM and the TGI (HCT-15 colon) was 8530 nM. The GI50 (UO-31 renal) was 688 nM, the TGI (UO-31 renal) was 20100 nM and the GI50 (TK-10 renal) was 1270 nM. The TGI (TK-10 renal) was greater than 50000 nM, the GI50 (NCI-H522 lung) was 113 nM and the TGI (NCI-H522 lung) was 4560 nM. It also gave a GI50 (786-0 renal) of 276 nM, a TGI (786-0 renal) greater than 16000 nM and a GI50 (SF-295 CNS) of 232 nM. It also gave a TGI (SF-295 CNS) greater than 50000 nM, a GI50 (SNB-75 CNS) of 93.3 nM and a GI50 (U251 CNS) of 325 nM. For the same compound, the TGI (U251 CNS) was 8240 nM, the GI50 (NCI/ADR-RES ovarian) was 121 nM and the GI50 (RXF 393 renal) was 114 nM. For the same compound, the TGI (RXF 393 renal) was 2310 nM, the GI50 (OVCAR-3 ovarian) was 146 nM and the TGI (OVCAR-3 ovarian) was 791 nM. The GI50 (UACC-257 melanoma) was 18000 nM, the TGI (UACC-257 melanoma) was greater than 50000 nM and the GI50 (SW-620 colon) was 216 nM. For the same compound, the TGI (SW-620 colon) was 11700 nM, the GI50 (MOLT-4 leukemia) was 318 nM and the TGI (MOLT-4 leukemia) was greater than 50000 nM. It also gave a GI50 (SK-MEL-28 melanoma) of 2160 nM, a TGI (SK-MEL-28 melanoma) greater than 45100 nM and a GI50 (HCC-2998 colon) of 785 nM. It also gave a TGI (HCC-2998 colon) of 6530 nM, a GI50 (HS 578T breast) of 153 nM and a TGI (HS 578T breast) greater than 50000 nM. The GI50 (NCI-H23 lung) was 227 nM, the GI50 (OVCAR-8 ovarian) was 277 nM and the TGI (OVCAR-8 ovarian) was greater than 50000 nM. It also gave a GI50 (SF-268 CNS) of 517 nM, a TGI (SF-268 CNS) greater than 50000 nM and a GI50 (ACHN renal) of 344 nM. The TGI (ACHN renal) was greater than 23000 nM, the GI50 (OVCAR-4 ovarian) was 472 nM and the TGI (OVCAR-4 ovarian) was greater than 50000 nM. For the same compound, the GI50 (PC-3 prostate) was 184 nM, the TGI (PC-3 prostate) was greater than 50000 nM and the GI50 (DU-145 prostate) was 190 nM. It also gave a TGI (DU-145 prostate) greater than 22900 nM, a GI50 (NCI-H226 lung) of 550 nM and a TGI (NCI-H226 lung) of 7280 nM. For the same compound, the GI50 (K-562 leukemia) was 140 nM, the TGI (K-562 leukemia) was greater than 50000 nM and the GI50 (MDA-MB-231 breast) was 377 nM. For the same compound, the TGI (MDA-MB-231 breast) was greater than 31800 nM, the GI50 (A549 NSCLC) was 273 nM and the TGI (A549 NSCLC) was greater than 50000 nM. For the same compound, the GI50 (T-47D breast) was 330 nM, the TGI (T-47D breast) was greater than 50000 nM and the GI50 (BT-549 breast) was 797 nM. For the same compound, the TGI (BT-549 breast) was greater than 50000 nM, the GI50 (HCT-116 colon) was 189 nM and the TGI (HCT-116 colon) was 5100 nM. It also gave a GI50 (M14 melanoma) of 90.7 nM, a TGI (M14 melanoma) greater than 50000 nM and a GI50 (EKVX NSCLC) of 752 nM. For the same compound, the TGI (EKVX NSCLC) was greater than 50000 nM, the GI50 (MALME-3M melanoma) was 1700 nM and the TGI (MALME-3M melanoma) was greater than 50000 nM. It also gave a GI50 (HOP-62 NSCLC) of 252 nM, a TGI (HOP-62 NSCLC) greater than 22500 nM and a GI50 (SK-MEL-5 melanoma) of 136 nM. The TGI (SK-MEL-5 melanoma) was 862 nM, the GI50 (LOX IMVI melanoma) was 332 nM and the TGI (LOX IMVI melanoma) was 2770 nM. It also gave a GI50 (IGROV1 ovarian) of 252 nM, a TGI (IGROV1 ovarian) greater than 50000 nM and a GI50 (HL-60(TB) leukemia) of 119 nM. For the same compound, the TGI (HL-60(TB) leukemia) was 342 nM, the GI50 (A498 renal) was 114 nM and the TGI (A498 renal) was 487 nM. For the same compound, the GI50 (SN12C renal) was 311 nM, the TGI (SN12C renal) was greater than 21000 nM and the GI50 (MCF7 breast) was 128 nM. For the same compound, the TGI (MCF7 breast) was greater than 50000 nM, the GI50 (HT29 colon) was 179 nM and the TGI (HT29 colon) was greater than 26600 nM. It also gave a GI50 (SK-OV-3 ovarian) of 248 nM, a TGI (SK-OV-3 ovarian) greater than 50000 nM and a GI50 (RPMI-8226 leukemia) of 340 nM. The TGI (RPMI-8226 leukemia) was greater than 10800 nM, the GI50 (SK-MEL-2 melanoma) was 422 nM and the TGI (SK-MEL-2 melanoma) was greater than 50000 nM. The GI50 (SF-539 CNS) was 105 nM, the TGI (SF-539 CNS) was 286 nM and the GI50 (KM12 colon) was 204 nM. The TGI (KM12 colon) was 7180 nM, the GI50 (CCRF-CEM leukemia) was 184 nM and the TGI (CCRF-CEM leukemia) was greater than 28700 nM.

`C=C(CNCCc1ccc(O)cc1)[C@@H]1CC[C@]2(COC3CCCCO3)CC[C@]3(C)[C@H](CC[C@@H]4[C@@]5(C)CCC(N)C(C)(C)[C@@H]5CC[C@]43C)[C@@H]12` (some centres not stated) gave a GI50 (SR leukemia) of 289 nM, a TGI (SR leukemia) greater than 100000 nM and a GI50 (U251 CNS) of 306 nM. It also gave a TGI (U251 CNS) greater than 100000 nM, a GI50 (K-562 leukemia) of 305 nM and a TGI (K-562 leukemia) greater than 100000 nM.
